Data taken from US12428405B2, “Chalcone-based chemotherapeutic compound for triple negative breast cancer” (QATAR UNIVERSITY, priority 2019, dated 2025).
Several values for one entry are separate records, joined by “and”; a condition that tells them apart may be missing. Equal entries are not always repeated. Entries after “also recorded” stand apart in the source; their conditions may differ.

How the values were obtained:
MDA-MB-231 [1] = experiment: MTT cell viability; type: cell-based; conditions: for IC50: Homo sapiens, MDA-MB-231, 48 hours of treatment, Mean ± SEM (n = 3 × 3); for SI of HNME/MDA-231 (selective index): ratio of LD50 on HNME-E6/E7 to IC50 on MDA-MB-231
Text: (§1) Breast cancer cell lines including MDA-MB-231, MDA-MB-468, MCF-7, BT-474 and SK-BR-3 were obtained from the American Type Tissue Culture (ATCC) and maintained in complete cell culture media Gibco® RPMI 1640 (Thermo Fisher Scientific, USA) supplemented with 10% fetal bovine serum (PAN-Biotech, Aidenbach, Bavaria, Germany) and 1% penicillin/streptomycin (1×) antibiotics (Thermo Fisher Scientific, USA). Human normal mammary epithelial cells immortalized by E6/E7 of HPV type 16 (HNME-E6/E7) were used to predict potential safety of the compounds (125, 126). They were maintained in Gibco® Keratinocyte-SFM (1×) media. All cells were incubated in 5% CO2 at 37° C. incubator. Cells were maintained by routine sub-culturing in T-75 and T25 filtered tissue culture flasks.
(§2) MDA-MB-231, MDA-MB-468, MCF-7, BT-474 and HNME-E6/E7 cells were seeded overnight in 96-well plates at a concentration of 8000-10,000/well depending on their pre-calculated cell density and were incubated overnight. At 24 hours, media was replaced with fresh one. The treatment wells included 6-8 different concentrations of the compounds ranging between 0.25 μM-160 μM. At 48 hours post treatment, 10 μL MTT solution was added to each well followed by 4 hours of incubation. Afterwards, media with MTT was removed from all wells and 50 μl DMSO was added to each well to dissolve the crystals. This was followed by 5 minutes incubation. Absorbance was recorded at a wavelength of 562 nm after 3 minutes of shaking using Infinite 200 PRO Microplate Reader (Tecan, Switzerland). Percentage of viable cells was calculated using the following formula: […]

MCF-7 [2] = experiment: MTT cell viability; type: cell-based; conditions: for IC50: Homo sapiens, MCF7, 48 hours of treatment, Mean ± SEM (n = 3 × 3); for SI of HNME/MCF-7 (selective index): ratio of LD50 on HNME-E6/E7 to IC50 on MCF-7
Text: as §1, §2

[3] = test system: Chorioallantoic membrane (CAM) of the chicken embryos; experiment: Chorioallantoic membrane (CAM) angiogenesis assay; type: in vivo; conditions: treated at embryonic day 4, read at day 8; 2 μl of 5 mM stock under coverslip
Protocol: Fertilized white Leghorn chicken embryos (Arab Qatari for Poultry Production, Qatar) were purchased and incubated at 60% humidity at 37° C. in MultiQuip incubator. Ethics approval was obtained from Qatar University-Institutional Bio-safety committee. The embryos were treated in ovo at embryonic day 4 with three of the synthesized chalcones (5, 13 and 14) compared to DMSO treated controls. Briefly, a small cut was made at the top of the shells of the eggs and each treatment was added under a round coverslip at 2 μl of 5 mM stock solutions. Microscopic pictures were taken at embryonic day 8. Embryos treated with compounds 13 and 14 were sacrificed at embryonic day 9 for clinical observations. Quantification of blood vessels was performed manually and the different treatment groups were compared.

MDA-MB-231 [4] = experiment: Soft agar colony formation assay; type: cell-based; conditions: for less colonies as compared to untreated: 5 and 10 μM, 21 days post treatment; for colony formation (in words): MDA-MB-231, soft agar
SK-BR-3 = experiment: Radius cell migration assay; type: cell-based; conditions: Homo sapiens, 24 hours of treatment, 5 concentrations, three independent experiments, read-out: Migratory IC50 SK-BR-3
Protocol: (§3) For MCF-7 and SK-BR-3 cell lines, migration testing was performed using the Radius™ Cell Migration Assay Kit (Cell Biolabs, Inc., USA) and migration was quantified based on the change in wound area.

MCF-7 [5] = experiment: Radius cell migration assay; type: cell-based; conditions: Homo sapiens, MCF7; 24 hours of treatment; 5 concentrations; three independent experiments; read-out: Migratory IC50 MCF-7
Protocol: as §3

BT-474 = experiment: MTT cell viability; type: cell-based
Text: as §1, §2

[6] = Two-week safety and tolerability of the dose before inoculation; conditions: 10 mg/kg intraperitoneally for two weeks; n=5
[7] = test system: Epithelial Mesenchymal Transition (EMT) markers in MDA-MB-231 cells; experiment: Western blot of EMT markers; type: cell-based
Protocol: (§4) Proteins were quantified with the Pierce BCA Protein Assay Kit (Thermo Scientific, USA) following cell lysis. SDS-PAGE was prepared at a concentration of 10% for all studied proteins. All samples were loaded at 40 μg per 1.5 mm 15 wells comb. Running of stained samples was performed using two steps gel electrophoresis (60 Volts for 20 minutes followed by 120 Volts for 1 hour). Afterwards, gels were transferred into PVDF membrane at 100 Voltage for 1.5-2.0 hours using wet transfer. Following transfer, PVDF membranes were blocked with 5% skimmed milk and washed three times. Primary antibodies (Table 2.2) were prepared, then PVDF membrane were incubated with them overnight with gentle shaking at 4° C. Afterwards, membranes were washed three times and incubated with their respective secondary antibodies for 1-2 hours with gentle shaking at room temperature. Pierce™ ECL Western Blotting Substrate was used to detect proteins by chemiluminescence. Blots were imaged using the ibrightCL1000 imaging system.

EMT markers on MCF-7 = experiment: Western blot of EMT markers; type: cell-based; conditions: 5 and 10 μM
Protocol: as §4

[8] = test system: MDA-MB-231 xenografted nude mice; experiment: In vivo tumor growth, xenograft model
[9] = test system: BAX/bcl2 expression in MCF-7 cell line; experiment: Western blot of BAX/bcl-2 expression; type: cell-based; conditions: 48 h, 5 and 10 μM; vs DMSO and colchicine
Protocol: as §4

[10] = test system: BAX/bcl2 expression in MDA-MB-231 cell line; experiment: Western blot of BAX/bcl-2 expression; type: cell-based; conditions: 48 h, 5 and 10 μM; vs DMSO and colchicine
Protocol: as §4

[11] = 10 mg/kg i.p., three times per week, 45 days

CS(=O)(=O)c1ccc(C(=O)/C=C/c2ccc(N(CCCl)CCCl)cc2)cc1 [Compound 13, (E)-3-(4-(Bis(2-chloroethyl)amino)phenyl)-1-(4-(methylsulfonyl)phenyl) prop-2-en-1-one]
IC50 (MDA-MB-231 [1]): 9.67 ± 0.68 µM | SI of HNME/MDA-231 (selective index) (MDA-MB-231 [1]): 3.34 | IC50 (MCF-7 [2]): 8.95 ± 1.46 µM | SI of HNME/MCF-7 (selective index) (MCF-7 [2]): 3.61 | inhibition of blood vessels development vs control [3]: 55.6±6.04% | less colonies as compared to untreated (MDA-MB-231 [4]): ~100% | colony formation (in words) (MDA-MB-231 [4]): better effects on MDA-MB-231 as compared to colchicine and paclitaxel

COc1cccc(C(=O)/C=C/c2ccc(N(CCCl)CCCl)cc2)c1 [Compound 14, (E)-3-(4-(Bis(2-chloroethyl)amino)phenyl)-1-(3-methoxyphenyl) prop-2-en-1-one]
IC50 (SK-BR-3): 2.79 ± 0.45 µM | IC50 (MCF-7 [5]): 2.44 ± 0.39 µM | IC50 (BT-474; Homo sapiens, BT-474, 48 hours of treatment, Mean ± SEM (n = 3 × 3)): 9.22 ± 0.78 µM | SI of HNME/BT-474 (selective index) (BT-474; ratio of LD50 on HNME-E6/E7 to IC50 on BT-474): 2.24 | IC50 (MDA-MB-231 [1]): 6.3 ± 0.78 µM | SI of HNME/MDA-231 (selective index) (MDA-MB-231 [1]): 3.2 | IC50 (MCF-7 [2]): 3.96 ± 1.87 µM | SI of HNME/MCF-7 (selective index) (MCF-7 [2]): 5.22 | clinical observations, tolerability (in words) [6]: did not show any changes in the mice food intake, weights, or shape | inhibition of blood vessels development vs control [3]: 60.20±8.47% | E-cadherin expression ([7]; 5 and 10 μM): concentration dependent upregulation | pan-cadherin expression ([7]; 5 and 10 μM): upregulated by compound 14 in a concentration dependent manner | Focal adhesion kinase (FAK) expression ([7]; MDA-MB-231): downregulated | expression of β-catenin and its phosphorylated form ([7]; cell line not named in the sentence (FIG. 3.24, FIG. 3.25)): No significant changes | EMT (in words) ([7]; summary statement): reversal of EMT | E-cadherin expression (EMT markers on MCF-7): concentration dependent upregulation | pan-cadherin expression (EMT markers on MCF-7): upregulated by compound 14 in a concentration dependent manner | less colonies as compared to untreated (MDA-MB-231 [4]): ~100% | colony formation (in words) (MDA-MB-231 [4]): completely inhibited; also recorded: better effects on MDA-MB-231 as compared to colchicine and paclitaxel | day on which the tumor in the treated group started to grow ([8]; 10 mg/kg i.p., three times per week): 24 days | clinical toxicity to treated animals (in words) [8, 11]: no notable clinical toxicity | mice health and weight (in words) [8, 11]: did not affect the mice health nor it had induced any changes to the mice weight | inhibition in tumor growth as compared to the placebo ([8]; 10 mg/kg i.p., three times per week, day 45, n=5): 46.41±0.71% and 46.41% | survival rate of the mice ([8]; during the 45 days): 100% | tumor volume ([8]; treated mice, day 45, n=5): 1350±1350 mm^3 | tumor weight ([8]; treated mice, day 45, n=5): 0.88±0.71 gm | BAX / bcl-2 protein expression, BAX/bcl-2 ratio [9]: upregulation of BAX and downregulation of bcl-2; also recorded: positive increase in BAX/bcl-2 ratio | BAX / bcl-2 protein expression, BAX/bcl-2 ratio [10]: upregulation of BAX and downregulation of bcl-2; also recorded: positive increase in BAX/bcl-2 ratio
